Columns and labels:
Assay in all cases: selective drug sensitivity score (sDSS, relative to normal bone marrow) (sDSS (score)); higher = more potent and effective on the cell line relative to normal bone marrow cells
Conditions in all cases: 72 h
697 = test system: 697
ALL-PO = test system: ALL-PO
CCRF-HSB2 = test system: CCRF-HSB2
COG-LL-332h = test system: COG-LL-332h
COG-LL-355h = test system: COG-LL-355h
COG-LL-402h = test system: COG-LL-402h
HAL-01 = test system: HAL-01
HPB-ALL = test system: HPB-ALL
KASUMI-10 = test system: KASUMI-10
KASUMI-2 = test system: KASUMI-2
KASUMI-9 = test system: KASUMI-9
KOPN-8 = test system: KOPN-8
LC4-1 = test system: LC4-1
MHH-CALL-2 = test system: MHH-CALL-2
MHH-CALL-4 = test system: MHH-CALL-4
MOLT-16 = test system: MOLT-16
MOLT-4 = test system: MOLT-4
RCH-ACV = test system: RCH-ACV
SEM cells = test system: SEM cells
TMD5 = test system: TMD5
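Also: ALL cell lines in 384-well plates, five doses spanning 10,000-fold, each plate scaled between vehicle and 100 µmol/L benzalkonium chloride controls, sDSS an adapted area-under-curve metric.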

Row | SMILES | selective drug sensitivity score 697 | selective drug sensitivity score (ALL-PO) | selective drug sensitivity score (CCRF-HSB2) | selective drug sensitivity score (COG-LL-332h) | selective drug sensitivity score (COG-LL-355h) | selective drug sensitivity score (COG-LL-402h) | selective drug sensitivity score (HAL-01) | selective drug sensitivity score (HPB-ALL) | selective drug sensitivity score (KASUMI-10) | selective drug sensitivity score (KASUMI-2) | selective drug sensitivity score (KASUMI-9) | selective drug sensitivity score (KOPN-8) | selective drug sensitivity score (LC4-1) | selective drug sensitivity score (MHH-CALL-2) | selective drug sensitivity score (MHH-CALL-4) | selective drug sensitivity score (MOLT-16) | selective drug sensitivity score (MOLT-4) | selective drug sensitivity score (RCH-ACV) | selective drug sensitivity score (SEM cells) | selective drug sensitivity score (TMD5)
1 | COc1cc2ncnc(Nc3cccc(Cl)c3F)c2cc1OC(=O)N1CCN(C)C[C@H]1C [AZD3759] (top concentration 1000 nM) | -0.04 | 1.26 | -0.04 | -0.04 | -0.04 | -0.04 | -0.04 | -0.04 | -0.04 | -0.04 | -0.04 | -0.04 | -0.04 | 1.56 | -0.04 | -0.04 | -0.04 | -0.04 | -0.04 | 0.06
2 | C[C@]12CC[C@H](O)CC1=CC[C@@H]1[C@@H]2CC[C@]2(C)C(c3cccnc3)=CC[C@@H]12 [Abiraterone] (top concentration 5000 nM) | -0.12 | 3.48 | -0.12 | -0.12 | -0.12 | -0.12 | -0.12 | -0.12 | -0.12 | -0.12 | -0.12 | 1.78 | 1.18 | 0.88 | 0.28 | 1.28 | -0.12 | -0.02 | -0.12 | -0.12
3 | CC#CC(=O)N1CCC[C@H]1c1nc(-c2ccc(C(=O)Nc3ccccn3)cc2)c2c(N)nccn12 [Acalabrutinib] (top concentration 1000 nM) | 0.8 | -0.1 | -0.1 | -0.1 | -0.1 | -0.1 | 7.2 | -0.1 | 1.8 | -0.1 | 1.2 | -0.1 | -0.1 | 9 | 7.4 | -0.1 | -0.1 | 1.8 | 3.2 | 5.9
4 | CCc1cc2c(cc1N1CCC(N3CCOCC3)CC1)C(C)(C)c1[nH]c3cc(C#N)ccc3c1C2=O [Alectinib] (top concentration 1000 nM) | 2.48 | 7.28 | -0.22 | 0.18 | -0.02 | 1.48 | 1.28 | -0.22 | 1.68 | 1.08 | 0.88 | 1.38 | 3.18 | -0.12 | -0.12 | -0.22 | -0.22 | 4.98 | 0.58 | -0.22
5 | Oc1ncnc2[nH]ncc12 [Allopurinol] (top concentration 10000 nM) | -0.64 | -0.64 | -0.64 | -0.64 | -0.64 | -0.64 | -0.64 | 6.06 | -0.64 | -0.64 | -0.64 | -0.64 | 0.06 | -0.64 | -0.64 | -0.64 | -0.64 | -0.64 | -0.54 | -0.64
6 | COc1cc(NS(C)(=O)=O)ccc1Nc1c2ccccc2nc2ccccc12 [Amsacrine] (top concentration 10000 nM) | 20.6 | 5.66 | 22.5 | 20.1 | 11 | 16.8 | 14.1 | 2.56 | 11 | 21.7 | 16 | 18.3 | 15.5 | 10.5 | 13.2 | 27.1 | 21.3 | 24.7 | 12.8 | 3.86
7 | O=C1CN2Cc3c(ccc(Cl)c3Cl)N=C2N1 [Anagrelide] (top concentration 10000 nM) | 0 | 1 | 0 | 0 | 4.6 | 0 | 0 | 0 | 0 | 0 | 0 | 3.4 | 0 | 1.5 | 0.6 | 0 | 0 | 0 | 0 | 0
8 | N#CC(c1ccnc(OCc2ccc(CN3CCOCC3)cc2)n1)c1nc2ccccc2s1 (stereo not given) [Bentamapimod] (top concentration 10000 nM) | 5.14 | 6.24 | 4.04 | 2.94 | 1.84 | 1.54 | 2.74 | 3.34 | -0.46 | -0.46 | 6.24 | 5.64 | 2.34 | 4.94 | -0.46 | 4.04 | 1.74 | 4.44 | 3.24 | 0.74
9 | CCNC(=O)CCC/C=C\C[C@@H]1[C@@H](/C=C/[C@@H](O)CCc2ccccc2)[C@H](O)C[C@@H]1O [Bimatoprost] (top concentration 5500 nM) | 0 | 0 | 0 | 0 | 0 | 0 | 0 | 0.5 | 0 | 2.5 | 0 | 0 | 0 | 0 | 0.5 | 0 | 0 | 0 | 0 | 0
10 | COc1cc(C)[nH]c(=O)c1CNC(=O)c1c(C)n([C@H](C)C2CCOCC2)c2ccccc12 [CPI-360] (top concentration 10000 nM) | 0 | 0 | 0 | 0 | 0 | 0 | 1.3 | 0 | 0 | 0 | 0 | 0 | 0 | 1.1 | 0 | 0 | 0 | 0 | 0 | 0

From the supplement of paper PMC8967900
